For assay [1], the system named is subgranular zone of the hippocampus. Kind of assay: Long-term (21 days) in vivo neurogenesis in the subgranular zone of the hippocampus (BrdU/NeuN, BrdU/DCX). Conditions: antagonist 0.2 μg/animal with DMT 0.1 μg/animal, every other day for 3 weeks. Details: species or system C57BL/6 mice. Here is the method:
Adult male C57BL/6 mice (obtained from Charles River Labs, Barcelona, Spain) were injected every other day for 3 weeks with DMT (0.1 μg/animal), alone or in combination with the selective Sigma-1 BD1063 antagonist (BD, 0.2 μg/animal, Sigma, Catalog number SML0276), the mixed 5-HT2A/1A receptor antagonist methiothepin (Met, 0.2 μg/animal, Sigma, Catalog number M149), or the selective 5-HT1A receptor antagonist WAY100635 (WAY, 0.2 μg/animal, ABCAM catalog number ab120550). On day 1 of treatment, animals were intraperitoneally injected with the proliferation marker 5-bromo-2-deoxyuridine (BrdU, 50 mg/kg, Sigma, Catalog number B5002) and sacrificed on day 21. Following anesthesia, the animals were perfused transcardially with 4% paraformaldehyde, and the brains obtained and post-fixed in the same solution at 4-8° C. overnight. They were subsequently cryoprotected, frozen, and finally cut into 30 μm coronal sections in a cryostat. Free-floating sections were immunostained using immunofluorescence analysis. For BrdU detection, samples were first incubated with 2 M HCl for 30 minutes at 37° C. before blocking 1 hour in PBS containing 5% normal serum, 0.1 M lysine, and 0.1% Triton X-100. Sections were then incubated with anti-BrdU mouse monoclonal antibody (DAKO, Barcelona, Spain, Catalog number M0744) combined with a neuronal marker, anti-neuN rabbit antibody (Abcam, Cambridge, UK. Catalog number ABN78) or an anti-double courtin (DCX) goat antibody (Santa Cruz Biotech. USA) at 4° C. overnight, washed three times and incubated with Alexa Fluor-488 goat anti-mouse and Alexa 647-goat anti-rabbit or -horse anti-goat secondary antibodies (Molecular Probes, Madrid, Spain), respectively, for 1 hour at room temperature. After rinses, sections were mounted with Vectashield.

In assay [2] the test system is hippocampal subgranular neurogenic niche. Kind of assay: Short-term (4 days) in vivo activation of the hippocampal subgranular neurogenic niche (BrdU). Details: species or system C57BL/6 mice. To be noted: antagonist 0.2 μg/animal with DMT 0.1 μg/animal. Here is the method:
Adult male C57BL/6 mice (obtained from Charles River Labs) were injected in the lateral ventricle (coordinates: from bregma, posterior −1 mm, lateral +1.3 mm, ventral +2 mm, according to the atlas of Paxinos and Franklin (Paxinos G, Franklin KBJ. The Mouse Brain in Stereotaxic Coordinates. 4. San Diego: Academic Press; 2012)), using a stereotaxic apparatus (Kopf Instruments, CA) with DMT (0.1 μg/animal), alone or in combination with the selective Sigma-1 BD1063 (BD, 0.2 μg/animal, Sigma, catalog number SML0276), the mixed 5-HT2A/1A receptor antagonist methiothepin (Met, 0.2 μg/animal, Sigma catalog number M149), or the selective 5-HT1A receptor antagonist WAY100635 (WAY, 0.2 μg/animal, ABCAM catalog number ab120550). Prior to the injection, mice were anesthetized by intraperitoneal injection of ketamine (60 mg/kg) and medetomidine (0.125 mg/kg). […] The boundaries of these nervous system regions were determined with reference to internal anatomic landmarks (Paxinos G, Franklin KBJ. The Mouse Brain in Stereotaxic Coordinates. 4. San Diego: Academic Press; 2012). For DG area selection, images were analyzed using computer-assisted image analysis software (Soft Imaging System Corporation, Lakewood, Colo., http://www.soft-imaging.com). Positive cells, which intersected the uppermost focal plane (exclusion plane) and the lateral exclusion boundaries of the counting frames, were not counted. […]

In assay [3] the target is D2 (Homo sapiens, UniProt P14416). To be noted: D2 Antag; cited from earlier work.
Chain of D2 (P14416 whole entry): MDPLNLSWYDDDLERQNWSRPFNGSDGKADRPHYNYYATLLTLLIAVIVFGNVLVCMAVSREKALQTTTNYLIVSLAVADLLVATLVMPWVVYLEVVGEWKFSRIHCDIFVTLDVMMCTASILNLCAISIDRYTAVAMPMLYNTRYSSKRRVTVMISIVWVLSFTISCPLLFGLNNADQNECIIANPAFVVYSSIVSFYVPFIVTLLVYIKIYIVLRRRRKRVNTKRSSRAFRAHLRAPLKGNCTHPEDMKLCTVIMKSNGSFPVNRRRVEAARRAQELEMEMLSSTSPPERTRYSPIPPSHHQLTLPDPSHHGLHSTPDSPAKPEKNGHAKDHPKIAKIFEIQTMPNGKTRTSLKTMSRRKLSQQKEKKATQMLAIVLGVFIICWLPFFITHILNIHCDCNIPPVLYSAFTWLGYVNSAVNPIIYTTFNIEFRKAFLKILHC
Assay [4] has as its target 5HT2A (Homo sapiens, UniProt P28223). To be noted: 5HT2A Antagonist; cited from earlier work.

Chain of 5HT2A (P28223 whole entry): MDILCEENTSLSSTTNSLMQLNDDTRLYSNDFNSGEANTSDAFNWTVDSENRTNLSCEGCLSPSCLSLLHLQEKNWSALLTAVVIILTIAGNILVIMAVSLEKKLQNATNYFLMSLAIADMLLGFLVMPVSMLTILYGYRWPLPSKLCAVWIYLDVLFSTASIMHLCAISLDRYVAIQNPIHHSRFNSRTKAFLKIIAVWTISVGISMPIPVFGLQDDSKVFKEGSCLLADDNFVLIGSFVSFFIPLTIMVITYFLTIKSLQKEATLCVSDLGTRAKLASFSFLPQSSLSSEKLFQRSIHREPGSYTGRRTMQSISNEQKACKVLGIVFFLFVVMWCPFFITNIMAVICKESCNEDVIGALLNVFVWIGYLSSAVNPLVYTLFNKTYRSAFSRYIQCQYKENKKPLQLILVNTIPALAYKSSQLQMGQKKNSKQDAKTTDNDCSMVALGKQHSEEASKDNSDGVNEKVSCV

`CN1CCN(CCc2ccc(Cl)c(Cl)c2)CC1` [BD1063]: in assay [1], the “blockade of the DMT neurogenic effect in vivo” value is listed as “blocked”. Further, the “blockade of DMT stimulatory effects in vivo” value in assay [2] is given as “completely blocked”.
A word on the Ki: it is the dissociation constant of the complex between target and ligand, obtained from inhibition or displacement. In the case of `CCNC(=O)N1CCN(CCCC(c2ccc(F)cc2)c2ccc(F)cc2)CC1` [Amperozide], the Ki in assay [3] is 140 nM; in assay [4], 12 nM.

Values taken from patent US11723894B2, “Combination product for the treatment of neurological and/or psychiatric disorders” (Consejo Superior de Investigaciones Cientificas (CSIC), priority 2017, dated 2023).
